Results published in patent publication US12209087B2, “AKT1 modulators” (Alterome Therapeutics, Inc., priority 2022, dated 2025).

The molecules below were run against T1, full length AKT E17K (Homo sapiens, UniProt P31749, E17K) (assay: NanoBRET Target Engagement (TE) Assay). Conditions: competitive displacement of tracer in cells, read-out: AKT1 E17K IC50.
T1 construct: host or cells: HEK-293 (ATCC CRL-1573)
Format: cell-based
In short: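 Compound and tracer incubated 2 h before luminescence at donor 450 nm and acceptor 600 nm, with extracellular signal inhibited. EC50 by sigmoidal variable-slope regression.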

T1 sequence (P31749 whole entry E17K): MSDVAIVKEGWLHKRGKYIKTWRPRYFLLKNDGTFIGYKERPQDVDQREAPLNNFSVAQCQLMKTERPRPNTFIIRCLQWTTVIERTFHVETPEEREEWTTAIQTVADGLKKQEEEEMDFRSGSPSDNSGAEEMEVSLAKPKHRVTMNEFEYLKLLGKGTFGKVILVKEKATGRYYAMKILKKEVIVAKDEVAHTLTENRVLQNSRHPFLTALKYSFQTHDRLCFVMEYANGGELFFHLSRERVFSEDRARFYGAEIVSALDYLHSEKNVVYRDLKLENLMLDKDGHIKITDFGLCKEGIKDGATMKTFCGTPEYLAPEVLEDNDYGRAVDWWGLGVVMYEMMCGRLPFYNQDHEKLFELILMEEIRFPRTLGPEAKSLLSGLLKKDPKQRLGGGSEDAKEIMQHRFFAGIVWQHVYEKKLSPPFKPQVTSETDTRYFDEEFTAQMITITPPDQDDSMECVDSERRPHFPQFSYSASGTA

IC50	Structure (SMILES)
15 to 60 nM	N#Cc1nccc(N2CCN(Cc3ccc(-n4c(-c5cccnc5N)nc5ccc(-c6ccc(Cl)cc6)nc54)cc3)CC2)n1 [Example 342, 4-(4-(4-(2-(2-Aminopyridin-3-yl)-5-(4-chlorophenyl)-3H-imidazo[4,5-b]pyridin-3-yl)benzyl)piperazin-1-yl)pyrimidine-2-carbonitrile]
60 to 600 nM	N#Cc1ccnc(N2CCN(Cc3ccc(-n4c(-c5cccnc5N)nc5ccc(-c6ccc(Cl)cc6)nc54)cc3)CC2)n1 [Example 343, 2-(4-(4-(2-(2-Aminopyridin-3-yl)-5-(4-chlorophenyl)-3H-imidazo[4,5-b]pyridin-3-yl)benzyl)piperazin-1-yl)pyrimidine-4-carbonitrile]
60 to 600 nM	N#Cc1cc(N2CCN(Cc3ccc(-n4c(-c5cccnc5N)nc5ccc(-c6ccc(Cl)cc6)nc54)cc3)CC2)ncn1 [Example 344, 6-(4-(4-(2-(2-Aminopyridin-3-yl)-5-(4-chlorophenyl)-3H-imidazo[4,5-b]pyridin-3-yl)benzyl)piperazin-1-yl)pyrimidine-4-carbonitrile]
60 to 600 nM	CN1CCN(c2ccc3nc(-c4cccnc4N)n(-c4ccc(CN5CCN(c6ccnc(C#N)n6)CC5)cc4)c3n2)CCC1=O [Example 345, 4-(4-(4-(2-(2-Aminopyridin-3-yl)-5-(4-methyl-5-oxo-1,4-diazepan-1-yl)-3H-imidazo[4,5-b]pyridin-3-yl)benzyl)piperazin-1-yl)pyrimidine-2-carbonitrile]
60 to 600 nM	CN1CCN(c2ccc3nc(-c4cccnc4N)n(-c4ccc(CN5CCC(Nc6ccnc(C#N)n6)CC5)cc4)c3n2)CCC1=O [Example 346, 4-((1-(4-(2-(2-Aminopyridin-3-yl)-5-(4-methyl-5-oxo-1,4-diazepan-1-yl)-3H-imidazo[4,5-b]pyridin-3-yl)benzyl)piperidin-4-yl)amino)pyrimidine-2-carbonitrile]
60 to 600 nM	N#Cc1ccnc(NC2CCN(Cc3ccc(-n4c(-c5cccnc5N)nc5ccc(N6CCCNC(=O)C6)nc54)cc3)CC2)n1 [Example 347, 2-((1-(4-(2-(2-Aminopyridin-3-yl)-5-(3-oxo-1,4-diazepan-1-yl)-3H-imidazo[4,5-b]pyridin-3-yl)benzyl)piperidin-4-yl)amino)pyrimidine-4-carbonitrile]
60 to 600 nM	Cn1cc(-c2ccc3nc(-c4cccnc4N)n(-c4ccc(CN5CCN(c6ccnc(C#N)n6)CC5)cc4)c3n2)ccc1=O [Example 348, 4-(4-(4-(2-(2-Aminopyridin-3-yl)-5-(1-methyl-6-oxo-1,6-dihydropyridin-3-yl)-3H-imidazo[4,5-b]pyridin-3-yl)benzyl)piperazin-1-yl)pyrimidine-2-carbonitrile]
15 to 60 nM	Cn1ccc(-c2ccc3nc(-c4cccnc4N)n(-c4ccc(CN5CCN(c6ccnc(C#N)n6)CC5)cc4)c3n2)cc1=O [Example 349, 4-(4-(4-(2-(2-Aminopyridin-3-yl)-5-(1-methyl-2-oxo-1,2-dihydropyridin-4-yl)-3H-imidazo[4,5-b]pyridin-3-yl)benzyl)piperazin-1-yl)pyrimidine-2-carbonitrile]
15 to 60 nM	N#Cc1ccnc(N2CCN(Cc3ccc(-n4c(-c5cccnc5N)nc5ccc(C6CC6)nc54)cc3)CC2)n1 [Example 350, 2-(4-(4-(2-(2-Aminopyridin-3-yl)-5-cyclopropyl-3H-imidazo[4,5-b]pyridin-3-yl)benzyl)piperazin-1-yl)pyrimidine-4-carbonitrile]
15 to 60 nM	N#Cc1ccnc(NC2CCN(Cc3ccc(-n4c(-c5cccnc5N)nc5ccc(C6CC6)nc54)cc3)CC2)n1 [Example 351, 2-((1-(4-(2-(2-Aminopyridin-3-yl)-5-cyclopropyl-3H-imidazo[4,5-b]pyridin-3-yl)benzyl)piperidin-4-yl)amino)pyrimidine-4-carbonitrile]
15 to 60 nM	N#Cc1ccnc(NC2CCN(Cc3ccc(-n4c(-c5cccnc5N)nc5ccc(-c6ccc(F)cc6)nc54)cc3)CC2)n1 [Example 352, 2-((1-(4-(2-(2-Aminopyridin-3-yl)-5-(4-fluorophenyl)-3H-imidazo[4,5-b]pyridin-3-yl)benzyl)piperidin-4-yl)amino)pyrimidine-4-carbonitrile]
60 to 600 nM	N#Cc1nccc(NC2CCN(Cc3ccc(-n4c(-c5cccnc5N)nc5ccc(-c6cccc(Cl)c6)nc54)cc3)CC2)n1 [Example 353, 4-((1-(4-(2-(2-Aminopyridin-3-yl)-5-(3-chlorophenyl)-3H-imidazo[4,5-b]pyridin-3-yl)benzyl)piperidin-4-yl)amino)pyrimidine-2-carbonitrile]
60 to 600 nM	Cn1cc(-c2ccc3nc(-c4cccnc4N)n(-c4ccc(CN5CCN(c6nccc(C#N)n6)CC5)cc4)c3n2)ccc1=O [Example 354, 2-(4-(4-(2-(2-Aminopyridin-3-yl)-5-(1-methyl-6-oxo-1,6-dihydropyridin-3-yl)-3H-imidazo[4,5-b]pyridin-3-yl)benzyl)piperazin-1-yl)pyrimidine-4-carbonitrile]
15 to 60 nM	Cn1cc(-c2ccc3nc(-c4cccnc4N)n(-c4ccc(CN5CCC(Nc6ccnc(C#N)n6)CC5)cc4)c3n2)ccc1=O [Example 355, 4-((1-(4-(2-(2-Aminopyridin-3-yl)-5-(1-methyl-6-oxo-1,6-dihydropyridin-3-yl)-3H-imidazo[4,5-b]pyridin-3-yl)benzyl)piperidin-4-yl)amino)pyrimidine-2-carbonitrile]
60 to 600 nM	Cn1cc(-c2ccc3nc(-c4cccnc4N)n(-c4ccc(CN5CCC(Nc6nccc(C#N)n6)CC5)cc4)c3n2)ccc1=O [Example 356, 2-((1-(4-(2-(2-Aminopyridin-3-yl)-5-(1-methyl-6-oxo-1,6-dihydropyridin-3-yl)-3H-imidazo[4,5-b]pyridin-3-yl)benzyl)piperidin-4-yl)amino)pyrimidine-4-carbonitrile]
15 to 60 nM	N#Cc1nccc(NC2CCN(Cc3ccc(-n4c(-c5cccnc5N)nc5ccc(-c6cccc(F)c6)nc54)cc3)CC2)n1 [Example 357, 4-((1-(4-(2-(2-Aminopyridin-3-yl)-5-(3-fluorophenyl)-3H-imidazo[4,5-b]pyridin-3-yl)benzyl)piperidin-4-yl)amino)pyrimidine-2-carbonitrile]
15 to 60 nM	N#Cc1ccnc(NC2CCN(Cc3ccc(-n4c(-c5cccnc5N)nc5ccc(-c6cccc(F)c6)nc54)cc3)CC2)n1 [Example 358, 2-((1-(4-(2-(2-Aminopyridin-3-yl)-5-(3-fluorophenyl)-3H-imidazo[4,5-b]pyridin-3-yl)benzyl)piperidin-4-yl)amino)pyrimidine-4-carbonitrile]
< 15 nM	Cn1ccc(-c2ccc3nc(-c4cccnc4N)n(-c4ccc(CN5CCC(Nc6ccnc(C#N)n6)CC5)cc4)c3n2)cc1=O [Example 359, 4-((1-(4-(2-(2-aminopyridin-3-yl)-5-(1-methyl-2-oxo-1,2-dihydropyridin-4-yl)-3H-imidazo[4,5-b]pyridin-3-yl)benzyl)piperidin-4-yl)amino)pyrimidine-2-carbonitrile]
60 to 600 nM	Cn1ccc(-c2ccc3nc(-c4cccnc4N)n(-c4ccc(CN5CCC(Nc6nccc(C#N)n6)CC5)cc4)c3n2)cc1=O [Example 360, 2-((1-(4-(2-(2-Aminopyridin-3-yl)-5-(1-methyl-2-oxo-1,2-dihydropyridin-4-yl)-3H-imidazo[4,5-b]pyridin-3-yl)benzyl)piperidin-4-yl)amino)pyrimidine-4-carbonitrile]
< 15 nM	N#Cc1nccc(N2CC3(CCN(Cc4ccc(-n5c(-c6cccnc6N)nc6ccc(-c7ccccc7)nc65)cc4)CC3)C2)n1 [Example 361, 4-(7-(4-(2-(2-Aminopyridin-3-yl)-5-phenyl-3H-imidazo[4,5-b]pyridin-3-yl)benzyl)-2,7-diazaspiro[3.5]nonan-2-yl)pyrimidine-2-carbonitrile]
< 15 nM	N#Cc1nccc(NC2CC3(CCN(Cc4ccc(-n5c(-c6cccnc6N)nc6ccc(-c7ccccc7)nc65)cc4)CC3)C2)n1 [Example 362, 4-((7-(4-(2-(2-Aminopyridin-3-yl)-5-phenyl-3H-imidazo[4,5-b]pyridin-3-yl)benzyl)-7-azaspiro[3.5]nonan-2-yl)amino)pyrimidine-2-carbonitrile]
15 to 60 nM	N#Cc1ncnc(N2CCC3(CCN(Cc4ccc(-n5c(-c6cccnc6N)nc6ccc(-c7ccccc7)nc65)cc4)CC3)C2)n1 [Example 363, 4-(8-(4-(2-(2-Aminopyridin-3-yl)-5-phenyl-3H-imidazo[4,5-b]pyridin-3-yl)benzyl)-2,8-diazaspiro[4.5]decan-2-yl)-1,3,5-triazine-2-carbonitrile]
15 to 60 nM	N#Cc1nccc(N2CCC3(CCN(Cc4ccc(-n5c(-c6cccnc6N)nc6ccc(-c7ccccc7)nc65)cc4)CC3)CC2)n1 [Example 364, 4-(9-(4-(2-(2-Aminopyridin-3-yl)-5-phenyl-3H-imidazo[4,5-b]pyridin-3-yl)benzyl)-3,9-diazaspiro[5.5]undecan-3-yl)pyrimidine-2-carbonitrile]
15 to 60 nM	N#Cc1ncnc(N2CCC3(CCN(Cc4ccc(-n5c(-c6cccnc6N)nc6ccc(-c7ccccc7)nc65)cc4)CC3)CC2)n1 [Example 365, 4-(9-(4-(2-(2-Aminopyridin-3-yl)-5-phenyl-3H-imidazo[4,5-b]pyridin-3-yl)benzyl)-3,9-diazaspiro[5.5]undecan-3-yl)-1,3,5-triazine-2-carbonitrile]
< 15 nM	N#Cc1nccc(N2CC3(CN(Cc4ccc(-n5c(-c6cccnc6N)nc6ccc(-c7ccccc7)nc65)cc4)C3)C2)n1 [Example 366, 4-(6-(4-(2-(2-Aminopyridin-3-yl)-5-phenyl-3H-imidazo[4,5-b]pyridin-3-yl)benzyl)-2,6-diazaspiro[3.3]heptan-2-yl)pyrimidine-2-carbonitrile]
< 15 nM	N#Cc1nccc(N2C[C@@H]3CN(Cc4ccc(-n5c(-c6cccnc6N)nc6ccc(-c7ccccc7)nc65)cc4)C[C@H]3C2)n1 [Example 367, 4-((3aS,6aS)-5-(4-(2-(2-aminopyridin-3-yl)-5-phenyl-3H-imidazo[4,5-b]pyridin-3-yl)benzyl)hexahydropyrrolo[3,4-c]pyrrol-2(1H)-yl)pyrimidine-2-carbonitrile]
